Experimental data published in patent EP0604653A1, “COMPLEX OF COMPOUND HAVING CHALCONE SKELETON” (TAISHO PHARMACEUTICAL CO. LTD, priority 1991, dated 1993).

What was measured:
[1] = Test of absorbability after oral capsule administration (cross-over, Latin square); assay type: in vivo; conditions: beagles, dose of SU-740 100 mg/kg, FIG. 5
Experimental: The test was conducted by a cross-over testing method according to a Latin square method using 15 beagles divided into three groups each consisting of 5 test animals. Each sample was put in a capsule and orally given to the animal so as to make a dose of SU-740 become 100 mg/kg.

[2] = test system: Histamine-Induced Ulceration; assay: Histamine-induced ulceration, area of lesions; assay type: in vivo; conditions: rats, i.d., dose of SU-740 31.4 mg/kg (Complex 200.0 mg/kg); histamine 300 mg/kg i.p. 3 hours later, lesion area 4 hours thereafter
Experimental: The test was carried out in accordance with the method described in M. Muramatsu et al., Arzeneim. Forsch., Vol. 40(I)1, p. 49 (1990). The sample dispersed in a 1 % gum arabic suspension was intraduodenally administrated to rats having been deprived of food for 24 hours so as to make a dose of SU-740 become 31.4 mg/kg. Three hours later, 300 mg/kg of histamine was intraperitoneally administered, and 4 hours thereafter the abdomen was opened, and the area of lesions was measured to evaluate the inhibitory effect on mucosal lesions.

[3] = test system: Prostaglandin (PG) Metabolic Enzyme; assay: PG metabolic enzyme activity in excised gastric mucosa after dosing (decomposition of PGE₁ as index); assay type: in vivo; conditions: rats, i.d., dose of SU-740 31.4 mg/kg (Complex 200.0 mg/kg)
Experimental: The test was carried out in accordance with the method described in M. Muramatsu et al., Biochemical Pharmacology, Vol. 33(16), p. 2629 (1984). The sample dispersed in a 1 % gum arabic suspension was intraduodenally administered to rats having been deprived of food for 24 hours so as to make a dose of SU-740 become 31.4 mg/kg. Two hours later, the gastric mucosa was excised, and a PG metabolic enzyme was extracted therefrom and analyzed with a spectrophotometer. The effect was examined taking decomposition of PGE₁ as an index.

[4] = test system: PGE₂ Content in Rat Gastric Mucosa; assay: PGE₂ content in gastric mucosa after dosing (radioimmunoassay); assay type: in vivo; conditions: rats, i.d., dose of SU-740 31.4 mg/kg (Complex 200.0 mg/kg)
Experimental: The test was carried out in accordance with the method described in M. Muramatsu et al., Life Science, Vol. 41, p. 315 (1987). The sample dispersed in a 1 % gum arabic suspension was intraduodenally administered to rats having been deprived of food for 24 hours so as to make a dose of SU -740 become 31.4 mg/kg. After 24 hours from the administration, the gastric mucosa was excised under anesthesia with ether and 2 mℓ of a 20 µM anhydrous solution of Indomethacin was added thereto, followed by homogenization. After allowing to stand for 1 hour, the homogenate was subjected to centrifugation at 3000 rpm for 10 minutes and the supernatant liquor (PG mixture) was lyophilized. The resulting PG mixture was suspended in distilled water, and extracted with methanol by means of a column (vac elute). Then the extract was lyophilized, and subjected to measurement by means of a radioimmunoassay kit.

Gastric Acid Secretion = assay: Gastric acid secretion in conscious dog with chronic fistula, stimulated by 2-deoxy-D-glucose; assay type: in vivo; conditions: p.o., table doses: SU-740 200.0 mg/kg, Complex 200.0 (31.4 as SU-740) mg/kg
Experimental: The test was carried out in accordance with the method described in Gastroenterology, Vol. 85, p. 900 (1983). A dog to which a fistula had been chronically fitted was deprived of food for 20 hours. […] One hour later, 300 mg/kg of 2-deoxy-D-glucose was intravenously injected. Two hours from the injection, the gastric acid secretion was measured.

[5] = test system: Hydrochloric Acid-Induced Lesion; assay: Hydrochloric acid-induced gastric mucosal lesion, length of ulcerations; assay type: in vivo, rat; conditions: rats, intraduodenal, dose of SU-740 10, 35 or 60 mg/kg, 0.6 N hydrochloric acid 1 hour later; FIG. 6
Experimental: Seventy-two rats divided into 9 groups each consisting of 8 animals were used. A 0.2 mℓ/100 g of the sample dispersed in a 5 % gum arabic suspension was intraduodenally administered to a rat so as to make a dose of SU-740 become 10 mg, 35 mg or 60 mg per kg-body weight. β-Cyclodextrin was similarly administered at a dose corresponding to the SU-740 content in the complex obtained in Example 2. On hour later, 1 mℓ of 0.6 N hydrochloric acid was administered, and 1 hour thereafter the abdomen was opened, and the length of the ulcerations was measured to evaluate the inhibitory effect on mucosal lesions.

absorbability [1] | Compound | Inhibitory Ratio (%) [2] [%] | % of Control ([3]; PG metabolic enzyme activity) [%] | PG Metabolic Enzyme Activity (nmol/mg protein/min) ([3]; gastric mucosa excised two hours later) | activity at 31.4 mg/kg ([4]; Rattus norvegicus, intraduodenal, PGE₂ content, read-out: % of Control) [%] | PGE₂ Content (pg/g wet weight) ([4]; gastric mucosa 24 hours after administration) | Inhibitory Ratio (%) (Gastric Acid Secretion; gastric acid secretion) | Gastric Acid Secretion (mEq/1 hr) (Gastric Acid Secretion; 2-deoxy-D-glucose 300 mg/kg i.v. one hour later) | inhibitory effect on mucosal lesions [5]
scarcely absorbed | CC(C)=CCOc1ccc(C(=O)/C=C/c2ccc(C(C)(C)C)cc2)c(OCC(=O)O)c1 [SU-740, 4-t-butyl-2'-carboxymethoxy-4'-(3-methyl-2-butenyloxy)chalcone] | 66.7 | 81.3 | 0.61±0.05 | 396 | 309.1±57.0 | 20.9 | 12.1±2.1 | –
– | OC[C@H]1O[C@@H]2O[C@H]3[C@H](O)[C@@H](O)[C@@H](O[C@H]4[C@H](O)[C@@H](O)[C@@H](O[C@H]5[C@H](O)[C@@H](O)[C@@H](O[C@H]6[C@H](O)[C@@H](O)[C@@H](O[C@H]7[C@H](O)[C@@H](O)[C@@H](O[C@H]8[C@H](O)[C@@H](O)[C@@H](O[C@H]1[C@H](O)[C@H]2O)O[C@@H]8CO)O[C@@H]7CO)O[C@@H]6CO)O[C@@H]5CO)O[C@@H]4CO)O[C@@H]3CO [β-Cyclodextrin, β-cyclodextrin] | – | – | – | – | – | – | – | little effect
